Measurements reported in US9133158B2, “Bicyclic dihydroisoquinoline-1-one derivatives” (Hoffmann-La Roche Inc., priority 2011, dated 2015).

Assays:
human CYP11B2 = biological target: T1, human CYP11B2 (Homo sapiens, UniProt P19099); experiment: G-402 cellular enzyme assay, human CYP11B2 (aldosterone release, HTRF); type: cell-based; settings: G-402 cells, 1 μM Deoxycorticosterone
T1 construct: expressed in transfected cells
T1 sequence (P19099 25-503): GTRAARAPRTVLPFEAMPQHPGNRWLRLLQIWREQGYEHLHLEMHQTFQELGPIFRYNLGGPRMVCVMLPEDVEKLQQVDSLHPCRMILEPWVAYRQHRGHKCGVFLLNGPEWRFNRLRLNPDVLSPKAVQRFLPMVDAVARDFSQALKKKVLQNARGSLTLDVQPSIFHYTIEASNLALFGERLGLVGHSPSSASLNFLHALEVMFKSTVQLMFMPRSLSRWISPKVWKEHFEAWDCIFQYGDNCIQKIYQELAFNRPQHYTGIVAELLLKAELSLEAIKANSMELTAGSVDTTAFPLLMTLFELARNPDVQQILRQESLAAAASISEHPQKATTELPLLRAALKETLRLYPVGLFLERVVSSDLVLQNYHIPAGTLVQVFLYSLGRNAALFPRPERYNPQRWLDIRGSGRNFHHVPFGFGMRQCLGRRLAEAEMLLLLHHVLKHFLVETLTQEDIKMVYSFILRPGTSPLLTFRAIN
Procedure, shortened: (§1)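 G-402 cells stably expressing human CYP11B1 or CYP11B2 incubated 16 h in DMEM/F12 with 2.5% charcoal-treated FCS, compound, and 1 μM 11-deoxycortisol (B1) or 1 μM deoxycorticosterone (B2). Cortisol (B1) or aldosterone (B2) in supernatant measured by HTRF; EC50 from 4-parameter MMF fit.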

human CYP11B1 = biological target: T2, human CYP11B1 (Homo sapiens, UniProt P15538); experiment: G-402 cellular enzyme assay, human CYP11B1 (cortisol release, HTRF); type: cell-based; settings: G-402 cells, 1 μM Deoxycortisol
T2 construct: expressed in transfected cells
T2 sequence (P15538 25-503): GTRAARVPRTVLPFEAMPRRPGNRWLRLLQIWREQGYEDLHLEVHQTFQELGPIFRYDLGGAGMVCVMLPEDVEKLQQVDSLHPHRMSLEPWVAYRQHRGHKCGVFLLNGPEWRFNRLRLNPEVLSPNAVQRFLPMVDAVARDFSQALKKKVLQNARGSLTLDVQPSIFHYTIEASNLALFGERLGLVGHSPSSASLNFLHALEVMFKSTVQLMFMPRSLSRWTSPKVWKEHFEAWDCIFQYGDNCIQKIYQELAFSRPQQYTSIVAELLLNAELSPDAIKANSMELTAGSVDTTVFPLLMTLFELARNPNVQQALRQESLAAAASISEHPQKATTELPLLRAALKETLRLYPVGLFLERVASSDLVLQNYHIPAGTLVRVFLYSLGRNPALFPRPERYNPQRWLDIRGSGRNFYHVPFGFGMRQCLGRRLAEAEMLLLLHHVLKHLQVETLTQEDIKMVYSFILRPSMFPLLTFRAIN
Procedure, shortened: as §1

**Q.** With `O=C1c2ccc(Cl)cc2CCN1c1cccnn1` [Example 52, 6-Chloro-2-pyridazin-3-yl-3,4-dihydro-2H-isoquinolin-1-one] as the molecule, how does the EC50 (human CYP11B2) read?
**A.** 382 nM

**Q.** And the EC50 (human CYP11B1)?
**A.** 2460 nM

**Q.** Which results are given for `O=C1CCCN1c1cncc(N2CCc3cc(Cl)ccc3C2=O)c1` [Example 26, 6-Chloro-2-[5-(2-oxo-pyrrolidin-1-yl)-pyridin-3-yl]-3,4-dihydro-2H-isoquinolin-1-one]?
**A.** EC50 (human CYP11B2): 321 nM; EC50 (human CYP11B1): 8150 nM

**Q.** How did the EC50 (human CYP11B2) turn out when `CC1(C)c2cc(Cl)ccc2C(=O)N1c1cncc(Cn2cccn2)c1` [Example 379, 5-Chloro-3,3-dimethyl-2-(5-pyrazol-1-ylmethyl-pyridin-3-yl)-2,3-dihydro-isoindol-1-one] was run?
**A.** 25.8 nM

**Q.** What about the EC50 (human CYP11B1) of the same molecule?
**A.** 370 nM

**Q.** Which results are given for `Cn1cncc1C(=O)NCc1cncc(N2C(=O)c3ccc(Cl)cc3C2(C)C)c1` [Example 435, 3-Methyl-3H-imidazole-4-carboxylic acid [5-(6-chloro-1,1-dimethyl-3-oxo-1,3-dihydro-isoindol-2-yl)-pyridin-3-ylmethyl]-amide]?
**A.** EC50 (human CYP11B2): 8.8 nM; EC50 (human CYP11B1): 256 nM

**Q.** For `COC[C@@H]1CCCN1c1cncc(N2CCc3cc(Cl)ccc3C2=O)c1` [Example 49, 6-Chloro-2-[5-((S)-2-methoxymethyl-pyrrolidin-1-yl)-pyridin-3-yl]-3,4-dihydro-2H-isoquinolin-1-one], which EC50 (human CYP11B2) is on record?
**A.** 49.6 nM

**Q.** And the EC50 (human CYP11B1)?
**A.** 188 nM

**Q.** Which EC50 (human CYP11B2) does the source give for `Cc1ccncc1C(=O)NCc1cncc(N2C(=O)c3ccc(Cl)cc3C2(C)C)c1` [Example 440, N-[5-(6-Chloro-1,1-dimethyl-3-oxo-1,3-dihydro-isoindol-2-yl)-pyridin-3-ylmethyl]-4-methyl-nicotinamide] here?
**A.** 17.6 nM

**Q.** What about the EC50 (human CYP11B1) of the same molecule?
**A.** 1270 nM

**Q.** How did the EC50 (human CYP11B2) turn out when `N#Cc1cncc(N2CCc3cc(Cl)ccc3C2=O)c1` [Example 2, 5-(6-Chloro-1-oxo-3,4-dihydro-1H-isoquinolin-2-yl)-nicotinonitrile] was run?
**A.** 442 nM

**Q.** What about the EC50 (human CYP11B1) of the same molecule?
**A.** 7390 nM

**Q.** Which results are given for `CCC1c2cc(Cl)ccc2C(=O)N1c1cccnc1` (stereo not drawn) [Example 125, 5-Chloro-3-ethyl-2-pyridin-3-yl-2,3-dihydro-isoindol-1-one]?
**A.** EC50 (human CYP11B2): 121 nM; EC50 (human CYP11B1): 3340 nM

**Q.** `O=C1c2ccc(Cl)cc2CCN1c1cncc(-c2ccccc2C(F)(F)F)c1` [Example 242, 6-Chloro-2-[5-(2-trifluoromethyl-phenyl)-pyridin-3-yl]-3,4-dihydro-2H-isoquinolin-1-one] was tested. Which EC50 (human CYP11B2) did it give?
**A.** 25.6 nM

**Q.** What about the EC50 (human CYP11B1) of the same molecule?
**A.** 206 nM

**Q.** What does the source list for `CC[C@H]1c2cc(Cl)ccc2C(=O)N1c1cncc2c1CCC[C@@H]2NS(C)(=O)=O` (single isomer, unassigned) [Example 348, N-[(S or R)-4-((S or R)-5-Chloro-3-ethyl-1-oxo-1,3-dihydro-isoindol-2-yl)-5,6,7,8-tetrahydro-isoquinolin-8-yl]-methanesulfonamide]?
**A.** EC50 (human CYP11B2): 2830 nM; EC50 (human CYP11B1): 36900 nM

**Q.** How did the EC50 (human CYP11B2) turn out when `CC(=O)N[C@H]1CCCc2c1cncc2N1C(=O)c2ccc(Cl)cc2[C@H]1C` (single isomer, unassigned) [Example 363, N-[(S or R)-4-((R or S)-5-Chloro-3-methyl-1-oxo-1,3-dihydro-isoindol-2-yl)-5,6,7,8-tetrahydro-isoquinolin-8-yl]-acetamide] was run?
**A.** 171 nM

**Q.** What about the EC50 (human CYP11B1) of the same molecule?
**A.** 2330 nM

**Q.** What does the source list for `Cc1nccn1Cc1cncc(N2Cc3cc(Cl)ccc3C2=O)c1` [Example 111, 5-Chloro-2-[5-(2-methyl-imidazol-1-ylmethyl)-pyridin-3-yl]-2,3-dihydro-isoindol-1-one]?
**A.** EC50 (human CYP11B2): 64.2 nM; EC50 (human CYP11B1): 923 nM

**Q.** With `Cc1ncn(C)c1-c1cncc(N2CCc3cc(Cl)ccc3C2=O)c1` [Example 80, 6-Chloro-2-[5-(3,5-dimethyl-3H-imidazol-4-yl)-pyridin-3-yl]-3,4-dihydro-2H-isoquinolin-1-one] as the molecule, how does the EC50 (human CYP11B2) read?
**A.** 4.7 nM

**Q.** And the EC50 (human CYP11B1)?
**A.** 58.1 nM

**Q.** Which results are given for `O=C1c2ccc(Cl)cc2C2(CC2)N1c1cncc(F)c1` [Example 290, 6′-Chloro-2′-(5-fluoropyridin-3-yl)spiro[cyclo-propane-1,1′-isoindol]-3′(2′H)-one]?
**A.** EC50 (human CYP11B2): 101 nM; EC50 (human CYP11B1): 3910 nM

**Q.** With `CC[C@@H]1c2cc(Cl)ccc2C(=O)N1c1cncc2c1CC[C@@H]2NC(C)=O` (single isomer, unassigned) [Example 342, (+)-N—[(S or R)-4-((R or S)-5-Chloro-3-ethyl-1-oxo-1,3-dihydro-isoindol-2-yl)-6,7-dihydro-5H-[2]pyrindin-7-yl]-acetamide] as the molecule, how does the EC50 (human CYP11B2) read?
**A.** 15.1 nM

**Q.** And the EC50 (human CYP11B1)?
**A.** 94.7 nM

**Q.** Which EC50 (human CYP11B2) does the source give for `CC1(C)c2ccc(F)cc2C(=O)N1c1cncc(CNS(C)(=O)=O)c1` [Example 406, N-[5-(5-Fluoro-1,1-dimethyl-3-oxo-1,3-dihydro-isoindol-2-yl)-pyridin-3-ylmethyl]-methane-sulfonamide] here?
**A.** 165 nM

**Q.** And the EC50 (human CYP11B1)?
**A.** 3150 nM

**Q.** Which EC50 (human CYP11B2) does the source give for `COC(c1ccncc1N1CCc2cc(Cl)ccc2C1=O)C1CC1` (stereo not drawn) [Example 78, 6-Chloro-2-[4-(cyclopropyl-methoxy-methyl)-pyridin-3-yl]-3,4-dihydro-2H-isoquinolin-1-one] here?
**A.** 761 nM

**Q.** And the EC50 (human CYP11B1)?
**A.** 1450 nM

**Q.** `CCC(=O)N1CCC(Oc2cncc(N3C(=O)c4ccc(Cl)cc4C3(C)C)c2)C1` (stereo not drawn) [Example 444, 5-Chloro-3,3-dimethyl-2-[5-(1-propionyl-pyrrolidin-3-yloxy)-pyridin-3-yl]-2,3-dihydro-isoindol-1-one] was tested. Which EC50 (human CYP11B2) did it give?
**A.** 8.4 nM

**Q.** What about the EC50 (human CYP11B1) of the same molecule?
**A.** 514 nM

**Q.** How did the EC50 (human CYP11B2) turn out when `Cn1ccnc1C(O)c1cncc(N2CCc3cc(Cl)ccc3C2=O)c1` (stereo not drawn) [Example 30, 6-Chloro-2-{5-[hydroxy-(1-methyl-1H-imidazol-2-yl)-methyl]-pyridin-3-yl}-3,4-dihydro-2H-isoquinolin-1-one] was run?
**A.** 751 nM

**Q.** And the EC50 (human CYP11B1)?
**A.** 2070 nM

**Q.** Which results are given for `CCC1c2cc(Cl)ccc2C(=O)N1c1cncc(C(C)O)c1` (stereo not drawn) [Example 283, 5-Chloro-3-ethyl-2-[5-(1-hydroxy-ethyl)-pyridin-3-yl]-2,3-dihydro-isoindol-1-one]?
**A.** EC50 (human CYP11B2): 66.7 nM; EC50 (human CYP11B1): 633 nM

**Q.** With `O=C1c2ccc(Cl)cc2CCN1c1cncc(CN2CCC(F)(F)CC2)c1` [Example 168, 6-Chloro-2-[5-(4,4-difluoro-piperidin-1-ylmethyl)-pyridin-3-yl]-3,4-dihydro-2H-isoquinolin-1-one] as the molecule, how does the EC50 (human CYP11B2) read?
**A.** 3.4 nM

**Q.** And the EC50 (human CYP11B1)?
**A.** 47.5 nM

**Q.** What does the source list for `CC(C)c1nccn1Cc1cncc(N2CCc3cc(Cl)ccc3C2=O)c1` [Example 141, 6-Chloro-2-[5-(2-isopropyl-imidazol-1-ylmethyl)-pyridin-3-yl]-3,4-dihydro-2H-isoquinolin-1-one]?
**A.** EC50 (human CYP11B2): 40.5 nM; EC50 (human CYP11B1): 1310 nM

**Q.** For `CC[C@@H]1c2cc(Cl)ccc2C(=O)N1c1cncc2c1CC[C@H]2NS(C)(=O)=O` (single isomer, unassigned) [Example 369, N-[(R or S)-4-((R or S)-5-Chloro-3-ethyl-1-oxo-1,3-dihydro-isoindol-2-yl)-6,7-dihydro-5H-[2]pyrindin-7-yl]-methanesulfonamide], which EC50 (human CYP11B2) is on record?
**A.** 40.3 nM

**Q.** And the EC50 (human CYP11B1)?
**A.** 12400 nM

**Q.** Which results are given for `O=C1c2ccc(Cl)cc2CCN1c1cncc(Cl)c1` [Example 4, 6-Chloro-2-(5-chloro-pyridin-3-yl)-3,4-dihydro-2H-isoquinolin-1-one]?
**A.** EC50 (human CYP11B2): 67.1 nM; EC50 (human CYP11B1): 1240 nM

**Q.** Which results are given for `COc1cncc(N2C(=O)c3ccc(Cl)cc3CC2C)c1` (stereo not drawn) [Example 85, 6-Chloro-2-(5-methoxy-pyridin-3-yl)-3-methyl-3,4-dihydro-2H-isoquinolin-1-one]?
**A.** EC50 (human CYP11B2): 59.6 nM; EC50 (human CYP11B1): 2860 nM

**Q.** Which EC50 (human CYP11B2) does the source give for `CC(C)c1nccn1Cc1cncc(N2C(=O)c3ccc(Cl)cc3CC2C)c1` (stereo not drawn) [Example 87, 6-Chloro-2-[5-(2-isopropyl-imidazol-1-ylmethyl)-pyridin-3-yl]-3-methyl-3,4-dihydro-2H-isoquinolin-1-one] here?
**A.** 251 nM

**Q.** And the EC50 (human CYP11B1)?
**A.** 9370 nM

**Q.** With `Cc1noc(C)c1Cc1cncc(N2CCc3cc(Cl)ccc3C2=O)c1` [Example 204, 6-Chloro-2-[5-(3,5-dimethyl-isoxazol-4-ylmethyl)-pyridin-3-yl]-3,4-dihydro-2H-isoquinolin-1-one] as the molecule, how does the EC50 (human CYP11B2) read?
**A.** 40.8 nM

**Q.** And the EC50 (human CYP11B1)?
**A.** 900 nM

**Q.** With `CC1(C)c2cc(Cl)ccc2C(=O)N1c1cncc(OC(F)F)c1` [Example 131, 5-Chloro-2-(5-difluoromethoxy-pyridin-3-yl)-3,3-dimethyl-2,3-dihydro-isoindol-1-one] as the molecule, how does the EC50 (human CYP11B2) read?
**A.** 11.9 nM

**Q.** What about the EC50 (human CYP11B1) of the same molecule?
**A.** 264 nM

**Q.** Which EC50 (human CYP11B2) does the source give for `CC(c1cncc(N2CCc3cc(Cl)ccc3C2=O)c1)n1cccn1` (stereo not drawn) [Example 271, 6-Chloro-2-[5-(1-pyrazol-1-yl-ethyl)-pyridin-3-yl]-3,4-dihydro-2H-isoquinolin-1-one] here?
**A.** 24.8 nM

**Q.** What about the EC50 (human CYP11B1) of the same molecule?
**A.** 251 nM

**Q.** What does the source list for `CC(C)(O)c1cncc(N2CCc3cc(Cl)ccc3C2=O)c1` [Example 12, 6-Chloro-2-[5-(1-hydroxy-1-methyl-ethyl)-pyridin-3-yl]-3,4-dihydro-2H-isoquinolin-1-one]?
**A.** EC50 (human CYP11B2): 35.7 nM; EC50 (human CYP11B1): 118 nM
